Results on 47 compounds are retold here after patent US20100081661A1, “HEME OXYGENASE INHIBITORS, SCREENING METHODS FOR HEME OXYGENASE INHIBITORS AND METHODS OF USE OF HEME OXYGENASE INHIBITORS FOR ANTIMICROBIAL THERAPY” (UNIVERSITY OF MARYLAND, BALTIMORE, priority 2006, published 2010).

The target of one assay is pa-HO (Pseudomonas aeruginosa, UniProt O69002). It is filed as binding. The following applies: for NMR sat. transfer: Table 2, paHO; for NMR pa-HO: Table 3A. For NMR pa-HO: key: Shows binding by NMR method = +; Ambig = ambiguous.
Sequence of pa-HO (O69002 1-198): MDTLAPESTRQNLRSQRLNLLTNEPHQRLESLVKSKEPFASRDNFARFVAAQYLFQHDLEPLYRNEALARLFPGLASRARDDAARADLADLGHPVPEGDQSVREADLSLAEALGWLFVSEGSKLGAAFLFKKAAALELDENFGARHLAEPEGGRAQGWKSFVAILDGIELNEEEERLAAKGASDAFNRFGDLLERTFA
For another assay, the system named is P. aeruginosa. The experiment in a line: MIC50 for P. aeruginosa. It is filed as cell-based, Pseudomonas aeruginosa. The following applies: for minimum inhibition conc / MIC: Table 2; for MIC: read-out: minimum inhibition conc.
[1] abbreviates: Pseudomonas aeruginosa, Table 3B, P. aeruginosa, read-out: MIC 50.
The mark [2] stands for this setting: Pseudomonas aeruginosa, Table 3A, read-out: MIC 50.

Molecules are shown by their SMILES. Where two headings read alike, the source gives them in different places.

As to `Cc1ccc(NC(=O)c2cnccn2)cc1Cl` [Compound 38], the NMR sat. transfer entry on pa-HO is listed as “Alias: CB-24 fluorescence binding: nd minimum inhibition conc: nd NMR sat. transfer: does not bind paHO”. The same measure, in the same setting: under `N#Cc1ncc(-c2ccccc2)nc1C#N` [Compound 120] stands “Alias: Spec-15 fluorescence binding: nd minimum inhibition conc: nd NMR sat. transfer: do not bind paHO”; under `O=C(N/N=C/c1ccc(O)cc1O)c1cccnc1` [Compound 11], “Alias: CD-20 fluorescence binding: nd minimum inhibition conc: nd NMR sat. transfer: do not bind paHO”. Same read-out and setting: under `N#CCc1ccc(NC2=NS(=O)(=O)c3ccccc32)cc1` [Compound 56] stands “Alias: CD-16 fluorescence binding: nd minimum inhibition conc: nd NMR sat. transfer: do not bind paHO”; under `NC(=O)c1ccc[n+](-c2ccccc2)c1` [Compound 91], “Alias: Spec-10 fluorescence binding: nd minimum inhibition conc: nd NMR sat. transfer: do not bind paHO”.

`Cc1cccc(NC(=O)c2ccc(C(=O)Nc3cccc(C)n3)cc2)n1` [Compound 39]: on pa-HO, the NMR sat. transfer result is on record as “Alias: CB-20 fluorescence binding: nd minimum inhibition conc: nd NMR sat. transfer: tested, ambiguous”. Same read-out and setting: under `O=C(O)c1ccc2c(c1)C(=O)N(CCO)C2=O` [Compound 151] stands “Alias: CB-8 fluorescence binding: nd minimum inhibition conc: nd NMR sat. transfer: binds paHO”. On to `Cn1c(=O)c(CC(=O)C(=O)O)nc2ccccc21` [Compound 152], for which, on pa-HO, the NMR sat. transfer entry is “yes, bind paHO” and the “NMR pa-HO” value was “+”. Moreover, the MIC50 in the assay on P. aeruginosa (setting [1]) is > 1000 µg/mL. Further, the minimum inhibition conc result in the assay with P. aeruginosa is listed as “no antibacterial activity”. In addition, the “MIC 50 (ug/ml)” value against P. aeruginosa (Table 3A) was “no antibact activity”. Take `COc1cc(/C=N/Cc2ccco2)ccc1O` [Compound 104]: on pa-HO, the NMR sat. transfer entry was “Alias: CD-13 fluorescence binding: nd minimum inhibition conc: nd NMR sat. transfer: do not bind paHO”.

Consider `Nc1nnnn1/N=C/c1cc2c(cc1[N+](=O)[O-])OCO2` [Compound 143], for which, at pa-HO, the NMR sat. transfer entry is recorded as “Alias: CB-19 fluorescence binding: nd minimum inhibition conc: nd NMR sat. transfer: binds paHO”. On the same count and under the same terms, under `Nc1nonc1-c1noc(-c2cccnc2O)n1` [Compound 113] stands “Alias: CD-17 fluorescence binding: nd minimum inhibition conc: nd NMR sat. transfer: do not bind paHO”.

For the compound `NC(=O)NC(=O)C[n+]1ccc(C(N)=O)cc1` [Compound 34], the NMR sat. transfer result at pa-HO is recorded as “Alias: CD-3 fluorescence binding: nd minimum inhibition conc: nd NMR sat. transfer: do not bind paHO”. Turning to `Cc1nc(NCCCC(=O)O)c2ccccc2n1` [Compound 71], the NMR sat. transfer entry at pa-HO is reported as “Alias: Spec-6 fluorescence binding: nd minimum inhibition conc: nd NMR sat. transfer: do not bind paHO”.

Regarding `Cc1ccc(CN2CCN(Cc3ccccc3)CC2)cc1` [Compound 80], the NMR sat. transfer result at pa-HO is listed as “Alias: CB-10 fluorescence binding: nd minimum inhibition conc: nd NMR sat. transfer: binds paHO”. The same measure, in the same setting: under `O=C(O)c1ccc2c(c1)C(=O)N(c1ccc(Cl)cc1)C2=O` [Compound 77] stands “Alias: CB-16 fluorescence binding: nd minimum inhibition conc: nd NMR sat. transfer: binds paHO”. Regarding `CC(N)c1ccc2ccccc2c1` (stereo not shown) [Compound 103], on pa-HO, the NMR sat. transfer result is reported as “yes, bind paHO” and the “NMR pa-HO” value is on record as “+”. Besides, the MIC in the assay with P. aeruginosa (Pseudomonas aeruginosa) was > 250 µg/mL. The MIC50 in the assay on P. aeruginosa (setting [2]) was > 250 µg/mL. In the assay on P. aeruginosa (Table 3B, P. aeruginosa), the “MIC50” value was >250 µg/mL. For the compound `C(=N\Nc1nc(-c2cccnc2)cs1)/c1cccnc1` [Compound 3], the NMR sat. transfer entry on pa-HO is given as “Alias: CB-28 fluorescence binding: nd minimum inhibition conc: nd NMR sat. transfer: does not bind paHO”. Same read-out and setting: under `O=C(O)c1c[nH]c2c(ccc3ccccc32)c1=O` [Compound 52] stands “Alias: Spec-2 fluorescence binding: nd minimum inhibition conc: nd NMR sat. transfer: do not bind paHO”; under `O=C(O)CCn1ncc2ccccc21` [Compound 51], “Alias: CD-5 fluorescence binding: nd minimum inhibition conc: nd NMR sat. transfer: do not bind paHO”. The same measure, in the same setting: under `O=C1OC(c2ccccc2)=N/C1=C\Nc1cccc([N+](=O)[O-])c1` [Compound 147] stands “Alias: CB-26 fluorescence binding: nd minimum inhibition conc: nd NMR sat. transfer: does not bind paHO”; under `CC(C)c1ccc(CN2CCN(CCO)CC2)cc1` [Compound 132], “Alias: CB-13 fluorescence binding: nd minimum inhibition conc: nd NMR sat. transfer: tested, ambiguous”.

For the compound `Cc1cc(C(=O)O)nn1-c1ccccc1` [Compound 115], at pa-HO, the NMR sat. transfer result is “yes, bind paHO” and the “NMR pa-HO” value was “+”. For the same compound, the MIC50 with P. aeruginosa (setting [1]) was > 1000 µg/mL. Further, the minimum inhibition conc entry in the assay with P. aeruginosa was “no antibacterial activity”. Also, the “MIC 50 (ug/ml)” value in the assay on P. aeruginosa (Table 3A) is listed as “no antibact activity”. Consider `C=CCNC(=O)C(=O)Nc1ccc(C(C)C)cc1` [Compound 124], for which the NMR sat. transfer result at pa-HO was “Alias: CB-30 fluorescence binding: nd minimum inhibition conc: nd NMR sat. transfer: tested, ambiguous”. The same measure, in the same setting: under `O=C(NCc1ccco1)c1cc(C(=O)NCc2ccco2)cc([N+](=O)[O-])c1` [Compound 40] stands “Alias: CB-25 fluorescence binding: nd minimum inhibition conc: nd NMR sat. transfer: does not bind paHO”; under `O=C(O)c1ccc2c(c1)-c1nc3ccccc3n1C2=O` [Compound 57], “Alias: CD-4 fluorescence binding: nd minimum inhibition conc: nd NMR sat. transfer: do not bind paHO”; under `Cc1n[nH]c(Nc2ccccc2F)c1[N+](=O)[O-]` [Compound 20], “Alias: CD-6 fluorescence binding: nd minimum inhibition conc: nd NMR sat. transfer: do not bind paHO”. The same measure, in the same setting: under `O=C(Oc1ccc(OC(=O)c2ccco2)cc1)c1ccco1` [Compound 47] stands “Alias: CB-3 fluorescence binding: nd minimum inhibition conc: nd NMR sat. transfer: do not bind paHO”; under `Cc1ccccc1C(=O)Nc1cc(C(=O)O)cc(C(=O)O)c1` [Compound 6], “Alias: CB-17 fluorescence binding: nd minimum inhibition conc: nd NMR sat. transfer: binds paHO”; under `CN(C)CCN(C)Cc1cccc2ccccc12` [Compound 98], “Alias: CB-12 fluorescence binding: nd minimum inhibition conc: nd NMR sat. transfer: binds paHO”. Still for that read-out and setting: under `O=CNc1nonc1NNc1ccccc1` [Compound 144] stands “Alias: CB-15 fluorescence binding: nd minimum inhibition conc: nd NMR sat. transfer: tested, ambiguous”. For `NCC(O)(c1ccc(Cl)cc1)c1ccc(Cl)cc1` [Compound 131], at pa-HO, the NMR sat. transfer result is recorded as “yes, bind paHO”. Further, the “NMR pa-HO” value at pa-HO is “+”. Besides, the MIC in the assay on P. aeruginosa (Pseudomonas aeruginosa) is > 250 µg/mL. The MIC50 in the assay on P. aeruginosa (setting [2]) is > 250 µg/mL; against P. aeruginosa (Table 3B, P. aeruginosa), >250 µg/mL. With `Oc1ccccc1/C=N/Nc1nnn[nH]1` [Compound 140], the NMR sat. transfer result on pa-HO is given as “Alias: CB-11 fluorescence binding: nd minimum inhibition conc: nd NMR sat. transfer: binds paHO”. The same measure, in the same setting: under `O=C(O)CN1C(=O)c2ccccc2C1=O` [Compound 5] stands “Alias: CB-4 fluorescence binding: nd minimum inhibition conc: nd NMR sat. transfer: binds paHO”; under `CCc1ccc2[nH]c3nc(N/N=C/c4ccc(O)cc4)nnc3c2c1` [Compound 139], “Alias: CB-27 fluorescence binding: nd minimum inhibition conc: nd NMR sat. transfer: does not bind paHO”.

Take `Cn1c(=N)n(CC(=O)O)c2ccccc21` [Compound 153]: the NMR sat. transfer result at pa-HO was “Alias: CD-9 fluorescence binding: nd minimum inhibition conc: nd NMR sat. transfer: do not bind paHO”.

Take `O=C(O)c1cc(-c2cccnc2)nc2ccccc12` [Compound 62]: the NMR sat. transfer entry on pa-HO is listed as “Alias: CB-23 fluorescence binding: nd minimum inhibition conc: nd NMR sat. transfer: does not bind paHO”. Still for that read-out and setting: under `O=C(O)Cn1c(=O)c2cc3c(=O)n(CC(=O)O)c(=O)c3cc2c1=O` [Compound 4] stands “Alias: CB-2 fluorescence binding: nd minimum binding conc: nd NMR sat. transfer: do not bind paHO”; under `CN1CCN(CCCn2cnc3c2c(=O)n(C)c(=O)n3C)CC1` [Compound 145], “Alias: CB-14 fluorescence binding: nd minimum inhibition conc: nd NMR sat. transfer: tested, ambiguous”. On the same count and under the same terms, under `O=C(CNC(=O)c1cccnc1)N/N=C/c1ccccn1` [Compound 9] stands “Alias: CD-21 fluorescence binding: nd minimum inhibition conc: nd NMR sat. transfer: do not bind paHO”; under `c1cncc(CNCc2cccnc2)c1` [Compound 64], “Alias: Spec-12 fluorescence binding: nd minimum inhibition conc: nd NMR sat. transfer: do not bind paHO”. The same measure, in the same setting: under `C=CCn1c(S)cc2sc3c(c2c1=O)CCN(C)C3` [Compound 128] stands “Alias: Spec-4 fluorescence binding: nd minimum inhibition conc: nd NMR sat. transfer: do not bind paHO”. Consider `NCC(=O)N(O)Cc1ccccc1` [Compound 127], for which, on pa-HO, the NMR sat. transfer result is given as “yes, bind paHO” and the “NMR pa-HO” value is “+”. For the same compound, the MIC with P. aeruginosa (Pseudomonas aeruginosa) is > 1000 µg/mL. Besides, the MIC50 with P. aeruginosa (setting [2]) was > 1000 µg/mL. In addition, in the assay with P. aeruginosa (Table 3B, P. aeruginosa), the “MIC50” value is >1000 µg/mL. As for `O=C(CNc1ccc2ccccc2c1)N/N=C/c1ccccn1` [Compound 10], the NMR sat. transfer entry at pa-HO was “Alias: CD-8 fluorescence binding: nd minimum inhibition conc: nd NMR sat. transfer: do not bind paHO”. With `CC(=O)Oc1ccc(-c2cccc(C(=O)O)c2)cc1` [Compound 61], on pa-HO, the NMR sat. transfer entry was “yes, bind to paHO” and the “NMR pa-HO” value is given as “+”. Moreover, the minimum inhibition conc result in the assay with P. aeruginosa was “no antibacterial activity”. Moreover, the “MIC 50 (ug/ml)” value in the assay with P. aeruginosa (Table 3A) was “no antibact activity”. With `NCCNS(=O)(=O)c1cccc(C(=O)O)c1` [Compound 18], on pa-HO, the NMR sat. transfer result is on record as “Alias: Spec-7 fluorescence binding: nd minimum inhibition conc: nd NMR sat. transfer: do not bind paHO”. Same read-out and setting: under `CCN1CCN(CCN)CC1` [Compound 90] stands “Alias: CD-19 fluorescence binding: nd minimum inhibition conc: nd NMR sat. transfer: do not bind paHO”; under `COc1ccc(C(=O)COC(=O)/C=C/c2ccccc2)cc1` [Compound 74], “Alias: CB-1 fluorescence binding: nd minimum inhibition conc: nd NMR sat. transfer: do not bind paHO”.
